Drawing on ChEMBL document CHEMBL1136059 (Bioorg Med Chem Lett, 2002), this text covers IC50 and inhibition for 23 molecules.

For experiment [1], the target named is T1, Prostaglandin G/H synthase 2 (Homo sapiens, UniProt P35354).
T1 sequence (P35354 whole entry): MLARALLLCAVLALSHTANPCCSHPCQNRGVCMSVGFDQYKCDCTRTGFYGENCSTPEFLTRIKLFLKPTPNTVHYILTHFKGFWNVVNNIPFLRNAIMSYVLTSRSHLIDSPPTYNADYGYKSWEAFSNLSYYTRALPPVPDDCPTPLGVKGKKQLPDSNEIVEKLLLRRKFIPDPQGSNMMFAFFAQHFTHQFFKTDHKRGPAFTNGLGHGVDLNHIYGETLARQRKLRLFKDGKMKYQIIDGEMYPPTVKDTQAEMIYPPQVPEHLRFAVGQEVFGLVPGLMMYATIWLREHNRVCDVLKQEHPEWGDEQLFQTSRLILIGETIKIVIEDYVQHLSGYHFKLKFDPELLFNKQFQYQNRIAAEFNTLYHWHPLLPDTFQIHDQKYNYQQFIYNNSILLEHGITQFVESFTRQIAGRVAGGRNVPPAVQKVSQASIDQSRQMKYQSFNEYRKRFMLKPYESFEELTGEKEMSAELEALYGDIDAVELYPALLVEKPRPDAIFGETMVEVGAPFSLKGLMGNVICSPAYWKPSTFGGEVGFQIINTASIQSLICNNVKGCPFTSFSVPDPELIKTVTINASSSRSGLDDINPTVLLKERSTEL
In kind it is functional.

Experiment [2] deals with T2, Prostaglandin G/H synthase 1 (Homo sapiens, UniProt P23219). Briefly: In vitro inhibition of cyclooxygenase-1 via inhibition of TXB2 generation in the presence of 1 uM arachidonic acid in human platelets.
Experiment [3] has as its target T2, Prostaglandin G/H synthase 1. Briefly: In vitro inhibition of cyclooxygenase-1 via inhibition of TXB2 generation in the presence of 1 uM arachidonic acid in human platelets at concentration of 10 uM. In kind it is functional.
Experiment [4] addresses T3, Prostaglandin G/H synthase 2 (Homo sapiens) (UniProt P35354).
T3 sequence (whole entry): T1 sequence (P35354 whole entry)
The experiment can be described thus: In vitro inhibition of cyclooxygenase-2 via inhibition of PGE-2 generation by LPS-stimulated monocytes isolated from human blood. Type of experiment: functional.

Experiment [5] has as its target T2, Prostaglandin G/H synthase 1. Briefly: In vitro inhibition of cyclooxygenase-1 via inhibition of TXB2 generation in the presence of 1 uM arachidonic acid in human platelets. Type of experiment: functional.
Experiment [6] concerns the target T3, Prostaglandin G/H synthase 2 (Homo sapiens). The experiment can be described thus: In vitro inhibition of cyclooxygenase-2 via inhibition of PGE-2 generation by LPS-stimulated monocytes isolated from human blood at concentration of 20 uM. Type of experiment: functional.
Experiment [7] concerns the target T2, Prostaglandin G/H synthase 1. In kind it is functional.
The target is the same in experiment [8]. Briefly: Tested in vitro for inhibition of cyclooxygenase-1 in human blood assay. In kind it is functional.
For experiment [9], the target named is T1, Prostaglandin G/H synthase 2. Briefly: Tested in vitro for inhibition of cyclooxygenase-2 in human blood assay. In kind it is functional.
The target of experiment [10] is T3, Prostaglandin G/H synthase 2 (Homo sapiens). The experiment can be described thus: In vitro inhibition of cyclooxygenase-2 via inhibition of PGE-2 generation by LPS-stimulated monocytes isolated from human blood at a concentration of 20 uM. In kind it is functional.
Experiment [11] deals with T2, Prostaglandin G/H synthase 1. Briefly: In vitro inhibition of cyclooxygenase-1 via inhibition of TXB2 generation in the presence of 1 uM arachidonic acid in human platelet. Type of experiment: functional.
In experiment [12] the target is T1, Prostaglandin G/H synthase 2. The experiment can be described thus: In vitro inhibition of cyclooxygenase-2 via inhibition of PGE-2 generation by LPS-stimulated monocytes isolated from human blood; inactive. Type of experiment: functional.

In general, IC50 refers to the midpoint of a concentration-inhibition curve. The inhibition is the drop in the measured response relative to a control, in per cent.

T2 sequence (P23219 whole entry): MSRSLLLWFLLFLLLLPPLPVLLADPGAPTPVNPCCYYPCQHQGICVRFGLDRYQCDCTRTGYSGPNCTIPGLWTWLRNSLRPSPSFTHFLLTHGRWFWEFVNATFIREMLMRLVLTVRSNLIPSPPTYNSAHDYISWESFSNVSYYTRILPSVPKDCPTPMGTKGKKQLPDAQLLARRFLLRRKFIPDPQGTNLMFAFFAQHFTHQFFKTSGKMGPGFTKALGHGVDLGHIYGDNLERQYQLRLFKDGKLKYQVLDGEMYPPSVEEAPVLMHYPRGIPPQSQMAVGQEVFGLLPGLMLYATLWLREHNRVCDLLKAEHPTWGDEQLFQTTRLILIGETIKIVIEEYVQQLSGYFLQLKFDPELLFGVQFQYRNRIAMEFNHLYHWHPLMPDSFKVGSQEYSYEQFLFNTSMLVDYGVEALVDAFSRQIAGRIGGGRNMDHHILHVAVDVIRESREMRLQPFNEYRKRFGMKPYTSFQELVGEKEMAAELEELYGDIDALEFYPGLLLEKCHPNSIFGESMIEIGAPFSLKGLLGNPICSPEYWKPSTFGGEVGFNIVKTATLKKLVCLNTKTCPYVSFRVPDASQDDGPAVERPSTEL

`CCc1cc(C(=O)c2ccccc2)ccc1/C=C/S(N)(=O)=O`: the IC50 came out at 5.6 µM in experiment [1] and 6.3 µM in experiment [2].

Regarding `Cc1cc(/C=C/S(N)(=O)=O)ccc1C(=O)c1ccccc1`, the inhibition in experiment [3] was 0%; in experiment [4], 41%.

For `Cc1ccc(/C=C/S(N)(=O)=O)cc1C(=O)c1ccccc1`, the inhibition in [5] came out at 49%. In addition, the IC50 in experiment [1] worked out at 19 µM.

In the case of `Cc1cc(C(=O)c2ccccc2)ccc1/C=C/S(N)(=O)=O`, the inhibition in [3] was determined as 0%; in [6], 14%.

On to `CS(=O)(=O)/C=C/c1ccc(C(=O)c2ccccc2)cc1`, for which the inhibition in [3] is 14%; in experiment [6], 6%.

Consider `CCc1cc(/C=C/S(N)(=O)=O)cc(C(=O)c2ccccc2)c1`, for which the IC50 was determined as 18 µM in experiment [7], 100 µM in [8], 12 µM in experiment [9] and 0.2 µM in experiment [1].

`CN(C)C(=O)c1cc(/C=C/S(N)(=O)=O)cc(C(=O)c2ccccc2)c1` returned an inhibition in experiment [10] of 31%.

For the molecule `CC(C(=O)O)c1cc(/C=C/S(C)(=O)=O)cc(C(=O)c2ccccc2)c1` (stereo not given), the IC50 in [1] was found to be 9.7 µM.

For `CS(=O)(=O)c1ccc(C2=C(c3ccccc3)C(=O)OC2)cc1`, the inhibition in experiment [3] stood at 0%.

For the molecule `NS(=O)(=O)/C=C/c1cccc(C(=O)c2ccccc2)c1`, the figures for the inhibition in [3] and in experiment [10] were 0% and 37%, respectively.

As for `CCc1cc(/C=C/S(C)(=O)=O)cc(C(=O)c2ccccc2)c1`, the figures for the inhibition in experiment [3] and in experiment [10] were 16% and 40%, respectively.

Consider `CCc1ccc(/C=C/S(N)(=O)=O)cc1C(=O)c1ccccc1`, for which the IC50 turned out to be 0.2 µM in [7] and 0.77 µM in experiment [1].

On to `NS(=O)(=O)/C=C/c1cc(CO)cc(C(=O)c2ccccc2)c1`, for which half-maximal inhibition in [7] (IC50) was put at 5.4 µM.

In the case of `N#Cc1cc(/C=C/S(N)(=O)=O)cc(C(=O)c2ccccc2)c1`, the IC50 in experiment [7] is 1.7 µM; in experiment [1], 5.6 µM.

On to `CCc1cc(/C=C/C(N)=O)cc(C(=O)c2ccccc2)c1`, for which the half-inhibitory concentration (IC50) was found to be 0.074 µM in [11] and 1.8 µM in experiment [1].

Molecule `CCc1cc(/C=C/C(=O)O)cc(C(=O)c2ccccc2)c1` had an IC50 in experiment [1] of 2.6 µM.

As to `NS(=O)(=O)/C=C/c1ccccc1C(=O)c1ccccc1`, the values for the inhibition in experiment [3] and in [6] were 39% and 43%, respectively.

For the molecule `NS(=O)(=O)/C=C/c1ccc(C(=O)c2ccccc2)cc1CO`, in experiment [3], the inhibition was 25%. The same molecule gave an IC50 in experiment [1] of 8.4 µM.

In turn, `CCOC(=O)/C=C/c1cc(CC)cc(C(=O)c2ccccc2)c1` came in with a 50% inhibitory concentration (IC50) in experiment [1] of 5 µM.

`CCN(CC)Cc1cc(/C=C/S(N)(=O)=O)cc(C(=O)c2ccccc2)c1` had an IC50 in [1] of 7.1 µM.

For `CC(C)=Cc1cc(/C=C/S(N)(=O)=O)cc(C(=O)c2ccccc2)c1`, the IC50 in experiment [7] was 3.6 µM; in [1] it was 0.98 µM.

Take `CS(=O)(=O)/C=C/c1cccc(C(=O)c2ccccc2)c1`: the IC50 entry in experiment [12] was “Not Active”.

Regarding `CC(=O)c1cc(/C=C/S(N)(=O)=O)cc(C(=O)c2ccccc2)c1`, the IC50 in [7] turned out to be 6.4 µM; in [1] it was 20 µM.
